In patent publication US20170058348A1, “Predictive mRNA Biomarkers for the Prediction of the Treatment with Methotrexate (MTX)” (Charité - Universitätsmedizin Berlin, priority 2014, published 2017):
Where “and” joins values, the source holds several entries; their conditions need not be identical. Identical values can stand only once.

Tests used:
[1] = tested on: patients with a clinically confirmed RA; assay: Clinical response to MTX therapy in RA patients (DAS28, EULAR criteria); assay type: in vivo, human; conditions: Health Assessment Questionnaire; one line per individual RA patient; during MTX treatment
Description: […] patients with a clinically confirmed RA were examined in the series of tests for the identification and definition of biomarkers for therapy prediction with MTX. In this regard, 5 ml of whole blood was taken from the patients in 2 PAXgene tubes (PreAnalytiX, Hombrechtikon, Switzerland) and turned for 24 hours on an overhead roller at 20° C. (20 rpm); afterwards, they were frozen at −20° C. until worked up. The patient samples were acquired in the context of two clinical studies under standard conditions (HitHard study; n=29; own clinical study; n=22) and after authorization by the ethics commission of the charity, as well as the agreement of the patients. The clinical data, prior to MTX therapy and over the course of >1 year, were stored in the context of the study conditions in a clinical database in accordance with ISO 9001 standard guidelines. The calculation of the assessment of the MTX response before and during the therapy periods was carried out in accordance with the guidelines from the European League Against Rheumatism (ELUAR) using the “Disease Activity Score” considering 28 joints (DAS28; (van Gestel et al, 1999)). The MTX therapy response was classified, in accordance with the guidelines, into the following three groups: responders (R), moderate responders (MR) and non-responders (NR). […]

RA patients = conditions: after a year (Furst 1996); cited from earlier work

Q: Which HAQ [1] does the source give for `CN(Cc1cnc2nc(N)nc(N)c2n1)c1ccc(C(=O)N[C@@H](CCC(=O)O)C(=O)O)cc1` [MTX, methotrexate] here?
A: Its HAQ is 0.6 (2×) and 0.8 and 1.3 (3×) and 0.3 (3×) and 0.0 (3×) and 0.1 (4×) and 1.0 (2×) and 0.5 (2×) and 0.75 and 1.1 (3×) and 0.4 and 1.4 and 0.9 and 1.5 and 1.9 and 2.3.

Q: And the sustained success rates (RA patients)?
A: The sustained success rates was 40-50%.
